# PMC9557727, “How an assembly factor enhances covalent FAD attachment to the flavoprotein subunit of complex II” (The Journal of Biological Chemistry, 2022)
# Like-named read-outs stand apart in the source and are kept apart here.
# Legend:
# E. coli apo-SdhA = target: T1, E. coli apo-SdhA (Escherichia coli, UniProt P0AC41); experiment: biochemical; format: biochemical; conditions: for Covalent FAD attachment to apo-SdhA, SdhE-dependent: +SdhE 10.4 μM; for Covalent FAD attachment to apo-SdhA, SdhE-dependent / Covalent FAD attachment to apo-SdhA, SdhE-independent: ligand 20 mM
# T1 construct: His6 (N); made in house; host or cells: E. coli RP437 ΔsdhE (RP-E), plasmid pCA24N-SdhA
# Procedure: (§1) Unless specified, the reaction was performed in 50 mM potassium phosphate (pH 7.0) at 30 °C for 1 h. […] The reaction was started after addition of the appropriate flavinylation-promoting ligand at the as-indicated concentration. At different time points, the samples were mixed with 4× SDS loading buffer (Bio-Rad), and the sample loaded onto an SDS-PAGE gel (Bio-Rad; Any KdA). Following protein separation, the gel was incubated in 10% acetic acid/20% ethanol for 5 min. Upon illumination with UV light, complex II flavinylated flavoprotein is visible because of the fluorescence of the covalently bound flavin. The in-gel fluorescence of covalently attached FAD was detected using a Safe Imager 2.0 blue-light transilluminator (Thermo Fisher Scientific). The gel was then rinsed with water for 5 min and stained with Instant Blue stain (Expedeon). ImageJ (National Institutes of Health) software was used for quantification of covalently bound FAD levels and relative protein ratios. The isolated holo-SdhA/FrdA or SDHA–SDHAF2 complex were used as 100% covalent flavinylated controls. […] To do that, upon addition of fumarate, the sample (200 μl) was quickly mixed and filled into an automatic pipette. Each sample (15 μl) was then injected into a vial containing 5 μl of 4× SDS loading gel. This allowed collection of time points that are at 10 to 15 s intervals.
# E. coli apo-FrdA = target: T2, E. coli apo-FrdA (Escherichia coli, UniProt P00363); format: biochemical; conditions: ligand 20 mM, FAD 100 μM, 1 h, 30 °C; for Covalent FAD attachment to apo-FrdA, SdhE-dependent: +SdhE 10.4 μM
# T2 construct: His6 (N); made in house; host or cells: E. coli RP437 ΔsdhE (RP-E), plasmid pCA24N-FrdA
# Procedure: as §1
# human apo-SDHA [1] = target: T3, human apo-SDHA (Homo sapiens, UniProt P31040); experiment: In vitro covalent flavinylation of human apo-SDHA; format: biochemical
# T3 construct: His6 (N); made in house; host or cells: E. coli BL21(DE3), plasmid pQE-hSDHA
# Procedure: as §1
# human apo-SDHA [2] = target: T3, human apo-SDHA; parameters: method as in PMID 32887801; conditions: cited from earlier work
# holo-SdhA–SdhE = target: holo-SdhA–SdhE; parameters: method as in PMID 29348404; conditions: read-out: Kd for fumarate, holo-SdhA–SdhE complex; holo-SdhA with covalent FAD; cited from earlier work
# [3] = tested on: Thermus thermophilus succinate dehydrogenase; conditions: no sdhE gene; cited from earlier work
# [4] = tested on: Sulfolobus tokodaii succinate dehydrogenase; conditions: no sdhE gene; cited from earlier work
# apo-SdhA [5] = target: T4, apo-SdhA (Escherichia coli, UniProt P0AC41); experiment: Reduction/oxidation of FAD during SdhE-dependent flavinylation (absorbance at 452 nm); format: biochemical; parameters: His6 (N); made in house; host or cells: apo-SdhA: E. coli RP437 ΔsdhE (pCA24N-SdhA); conditions: 10 mM fumarate; 25 μM apo-SdhA, 20 μM FAD, 40 μM SdhE, 30 °C
# Procedure: Spectral measurements and kinetics were performed by using an Agilent […] UV–visible spectrophotometer. For kinetic measurements, whole spectra (1 nm increments) were collected during the reaction at 1 to 5 s intervals.
# Target sequence in this assay (P64559 whole entry): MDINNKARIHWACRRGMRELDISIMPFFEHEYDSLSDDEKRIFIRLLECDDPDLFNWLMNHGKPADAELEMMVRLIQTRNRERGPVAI
# Target sequence in this assay (P0AC41 whole entry): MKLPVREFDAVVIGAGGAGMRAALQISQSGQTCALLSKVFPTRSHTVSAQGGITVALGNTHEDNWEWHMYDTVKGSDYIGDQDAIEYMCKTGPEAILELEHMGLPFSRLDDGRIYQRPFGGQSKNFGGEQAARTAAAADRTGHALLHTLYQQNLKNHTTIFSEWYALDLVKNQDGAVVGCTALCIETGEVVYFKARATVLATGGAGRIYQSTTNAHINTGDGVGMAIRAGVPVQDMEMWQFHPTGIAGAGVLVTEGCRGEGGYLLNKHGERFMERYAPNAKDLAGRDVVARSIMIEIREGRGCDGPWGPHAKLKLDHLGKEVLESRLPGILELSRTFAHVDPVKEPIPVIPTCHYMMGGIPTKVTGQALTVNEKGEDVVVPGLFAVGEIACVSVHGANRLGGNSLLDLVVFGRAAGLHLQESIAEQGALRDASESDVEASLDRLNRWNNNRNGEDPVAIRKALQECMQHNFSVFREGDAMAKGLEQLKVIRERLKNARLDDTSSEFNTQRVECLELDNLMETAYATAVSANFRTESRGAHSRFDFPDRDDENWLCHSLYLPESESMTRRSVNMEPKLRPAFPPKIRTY
# apo-SdhA [6] = target: T4, apo-SdhA; experiment: Hydrogen peroxide formation upon covalent flavinylation of SdhA (Amplex UltraRed); format: biochemical; parameters: His6 (N); made in house; host or cells: apo-SdhA: E. coli RP437 ΔsdhE (pCA24N-SdhA); conditions: apo-SdhA 2.8 μM, FAD 2.5 μM, SdhE 4.8 μM
# Procedure: Upon covalent attachment, the flavin in SdhA became reduced and can be reoxidized by oxygen with formation of hydrogen peroxide. Amplex UltraRed was used to monitor the hydrogen peroxide formed. […] The reaction was started by addition of either 10 μM or 10 mM fumarate and hydrogen peroxide monitored by following the oxidation of Amplex UltraRed (567 nm) using an Agilent 8453 spectrophotometer.
# Target sequence in this assay (P64559 whole entry): as the sequence (P64559 whole entry) above
# Target sequence in this assay (P0AC41 whole entry): as the sequence (P0AC41 whole entry) above
# [7] = parameters: method as in PMID 4752947, PMID 6263261, PMID 15884941; conditions: free FAD in solution; cited from earlier work
# apo-SdhA [8] = target: T4, apo-SdhA; format: biochemical; parameters: His6 (N); made in house; host or cells: apo-SdhA: E. coli RP437 ΔsdhE (pCA24N-SdhA); conditions: 30 min at 37 °C; FAD 100 μM, SdhE 10.4 μM
# Target sequence in this assay (P64559 whole entry): as the sequence (P64559 whole entry) above
# Target sequence in this assay (P0AC41 whole entry): as the sequence (P0AC41 whole entry) above
# Procedure: Apo-SdhA (2.8 μM) or apo-SDHA (4.3 μM) in 40 mM Hepes (pH 7.5) was incubated at 37 °C as follows: (1) no addition; (2) FAD (100 μM); (3) the assembly factors SdhE (10.4 μM) or SDHAF2 (8.4 μM); and (4) FAD (100 μM) plus appropriate assembly factors at the aforementioned concentrations. The incubation time was 15 min for SDHA and 30 min for SdhA. Corresponding control samples (with no additions) were held at 4 °C for the same time. After the incubation, the samples were transferred to 4 °C, and to all samples, including the control, either FAD and/or the assembly factor was added so that each sample contains 100 μM FAD and the appropriate assembly factor. Then 0.5 mM fumarate is added to each sample to initiate the flavinylation reaction. After 30 min incubation at 30 °C, 4× SDS sample buffer was added, and then in-gel fluorescence was determined as described previously.
# apo-SdhA [9] = target: T4, apo-SdhA; experiment: Determination of Kd for FAD by ultrafiltration; format: binding; parameters: His6 (N); made in house; host or cells: E. coli RP437 ΔsdhE (RP-E), plasmid pCA24N-SdhA; conditions: 50 mM Hepes pH 7.0, 21 °C
# Procedure: The method is adapted from Mortarino et al. ([36]). […] The exact volume and the concentration of free flavin (ε^450 = 11.3 mM^−1 cm^−1) in the filtrate was measured, and it is assumed the free flavin (FAD^free) concentrations are the same in the filtrate and concentrated fractions. The total FAD in the concentrated fraction was calculated, and the excess over FAD^free corresponded to SdhA–noncovalent FAD. The Kd = [FAD^free][apo-SdhA]/[SdhA–FAD] was calculated from the amount of apo-SdhA determined by total protein concentration. The data are expressed as mean ± SD of four to five independent measurements.
# Target sequence in this assay (P0AC41 whole entry): as above
# [10] = +SdhE, 50 mM potassium phosphate pH 7.0, 0.1 mM FAD, 30 °C
# [11] = read-out: k, ligand concentration for half-maximal flavinylation after 1 h incubation, +SdhE, 50 mM potassium phosphate pH 7.0, 0.1 mM FAD, 30 °C, 1 h
# T3 sequence (P31040 43-664): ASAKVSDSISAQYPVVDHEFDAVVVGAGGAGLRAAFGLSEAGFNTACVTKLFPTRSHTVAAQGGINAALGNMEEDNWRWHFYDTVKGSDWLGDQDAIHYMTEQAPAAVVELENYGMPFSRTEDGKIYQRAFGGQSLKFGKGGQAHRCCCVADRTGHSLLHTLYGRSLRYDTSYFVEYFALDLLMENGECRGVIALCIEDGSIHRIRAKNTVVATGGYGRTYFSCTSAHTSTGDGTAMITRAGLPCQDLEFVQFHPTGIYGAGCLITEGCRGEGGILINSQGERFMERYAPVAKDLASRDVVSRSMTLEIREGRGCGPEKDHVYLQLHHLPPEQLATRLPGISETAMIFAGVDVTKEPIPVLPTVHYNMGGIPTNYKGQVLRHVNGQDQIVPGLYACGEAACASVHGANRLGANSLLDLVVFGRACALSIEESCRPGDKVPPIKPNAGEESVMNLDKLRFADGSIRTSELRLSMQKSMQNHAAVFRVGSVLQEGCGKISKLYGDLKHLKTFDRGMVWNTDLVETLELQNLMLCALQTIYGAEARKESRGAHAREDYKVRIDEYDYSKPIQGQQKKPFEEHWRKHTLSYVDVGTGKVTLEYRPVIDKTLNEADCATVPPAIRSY
# T2 sequence (P00363 whole entry): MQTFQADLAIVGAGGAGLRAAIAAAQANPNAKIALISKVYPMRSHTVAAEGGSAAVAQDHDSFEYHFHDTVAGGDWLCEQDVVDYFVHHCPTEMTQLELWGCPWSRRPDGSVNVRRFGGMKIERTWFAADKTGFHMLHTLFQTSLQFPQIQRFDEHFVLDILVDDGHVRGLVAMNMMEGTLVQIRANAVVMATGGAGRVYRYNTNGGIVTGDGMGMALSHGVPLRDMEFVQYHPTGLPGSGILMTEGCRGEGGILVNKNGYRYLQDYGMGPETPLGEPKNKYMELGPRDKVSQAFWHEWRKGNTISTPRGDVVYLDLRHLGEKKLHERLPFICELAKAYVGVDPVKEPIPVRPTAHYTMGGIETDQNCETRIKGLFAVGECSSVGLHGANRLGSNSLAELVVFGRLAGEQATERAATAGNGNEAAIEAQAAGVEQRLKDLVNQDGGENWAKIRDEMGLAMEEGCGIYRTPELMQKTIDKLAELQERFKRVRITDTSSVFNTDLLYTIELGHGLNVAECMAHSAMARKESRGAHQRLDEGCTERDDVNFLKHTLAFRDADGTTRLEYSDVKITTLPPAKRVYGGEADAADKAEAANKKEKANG
# T1 sequence (P0AC41 whole entry): as the sequence (P0AC41 whole entry) above
smiles,measurement,setting,value
CC(=O)C(=O)O [Pyruvate],"Covalent FAD attachment to apo-SdhA, SdhE-dependent","E. coli apo-SdhA; FAD 100 μM, 1 h, 30 °C",able to induce
same,"Covalent FAD attachment to apo-FrdA, SdhE-dependent",E. coli apo-FrdA,able to induce
O=C(O)/C=C/C(=O)O [Fumarate],"Covalent FAD attachment to apo-SdhA, SdhE-dependent","E. coli apo-SdhA; FAD 100 μM, 1 h, 30 °C",high levels
same,"K, apparent first-order rate constant of covalent flavinylation, +SdhE",E. coli apo-SdhA; [10],1.7 min⁻¹
same,Fumarate concentration giving complete flavinylation of apo-SdhA,"E. coli apo-SdhA; +SdhE, apo-SdhA 6 μM, FAD 100 μM, 1 h, 30 °C",~1 µM
same,EC50,E. coli apo-SdhA; [11],< 1 µM
same,"k, apparent first-order rate constant of covalent flavinylation, −SdhE","E. coli apo-SdhA; −SdhE, 50 mM potassium phosphate pH 7.0, 0.1 mM FAD, 30 °C",0.1 min⁻¹
same,"k, apparent first-order rate constant of covalent flavinylation, −SdhE","E. coli apo-SdhA; −SdhE, 50 mM potassium phosphate pH 7.0, 0.1 mM FAD, 30 °C, listed as fumarate",0.095 min⁻¹
same,"Covalent FAD attachment to apo-SdhA, SdhE-independent","E. coli apo-SdhA; −SdhE, FAD 100 μM, 1 h, 30 °C",complete
same,"Covalent FAD attachment to apo-FrdA, SdhE-dependent",E. coli apo-FrdA,high levels
same,"Covalent FAD attachment to apo-FrdA, SdhE-independent",E. coli apo-FrdA,complete
same,Saturation level of SDHAF2-independent flavinylation relative to SDHAF2-dependent flavinylation,"human apo-SDHA [1]; −SDHAF2, 60 mM fumarate, 100 μM FAD, time course",~70%
same,"k, rate of covalent flavinylation of SDHA, − SDHAF2","human apo-SDHA [1]; −SDHAF2, 60 mM fumarate, 100 μM FAD, assuming 70% of protein capable of flavinylation",0.032 min⁻¹
same,EC50,"human apo-SDHA [1]; −SDHAF2, fumarate concentration for 50% flavinylation, read-out: K (fum), − SDHAF2",12000 µM
same,SDHAF2-independent flavinylation of SDHA relative to flavinylation in the presence of SDHAF2,"human apo-SDHA [1]; −SDHAF2, ligand 20 mM, FAD 100 μM, 1 h, 37 °C",~40%
same,EC50,"human apo-SDHA [2]; +SDHAF2, read-out: Concentration of fumarate needed to achieve 50% flavinylation, with SDHAF2",16 µM
same,"k, rate of covalent flavinylation of SDHA, + SDHAF2",human apo-SDHA [2],0.15 min⁻¹
same,Kd,holo-SdhA–SdhE,64 µM
same,Initiation of flavinylation in Thermus thermophilus,[3],quite proficient
same,Initiation of flavinylation in Sulfolobus tokodaii,[4],proficient flavinylation
same,"k app, fast phase (reduction of FAD)",apo-SdhA [5],~7 min⁻¹
same,"k app, second slower phase (reoxidation of reduced flavin)",apo-SdhA [5],~0.1 min⁻¹
same,Hydrogen peroxide formation on induction of flavinylation,apo-SdhA [6]; 10 μM fumarate,significant increase in hydrogen peroxide
same,Hydrogen peroxide formation on induction of flavinylation,apo-SdhA [6]; 10 mM fumarate,very low release of hydrogen peroxide
O=C(O)CC(O)(CC(=O)O)C(=O)O [citrate],"Covalent FAD attachment to apo-SdhA, SdhE-dependent","E. coli apo-SdhA; FAD 100 μM, 1 h, 30 °C",able to induce
same,"Covalent FAD attachment to apo-FrdA, SdhE-dependent",E. coli apo-FrdA,able to induce
O=C(O)CC(=O)O [malonate],"Covalent FAD attachment to apo-SdhA, SdhE-dependent","E. coli apo-SdhA; FAD 100 μM, 1 h, 30 °C",~30%
same,"Covalent FAD attachment to apo-FrdA, SdhE-dependent",E. coli apo-FrdA,~30%
"O=C(O)CCC(=O)O [Succinate, succinate]","Covalent FAD attachment to apo-SdhA, SdhE-dependent","E. coli apo-SdhA; FAD 100 μM, 1 h, 30 °C",high levels
same,"K, apparent first-order rate constant of covalent flavinylation, +SdhE",E. coli apo-SdhA; [10],0.7 min⁻¹
same,EC50,E. coli apo-SdhA; [11],1 µM
same,"Covalent FAD attachment to apo-SdhA, SdhE-independent","E. coli apo-SdhA; −SdhE, FAD 100 μM, 1 h, 30 °C",partially effective
same,"Covalent FAD attachment to apo-FrdA, SdhE-dependent",E. coli apo-FrdA,high levels
same,Initiation of flavinylation in Thermus thermophilus,[3],quite proficient
same,Initiation of flavinylation in Sulfolobus tokodaii,[4],proficient flavinylation
Cc1cc2nc3c(=O)[nH]c(=O)nc-3n(C[C@H](O)[C@H](O)[C@H](O)COP(=O)(O)OP(=O)(O)OC[C@H]3O[C@@H](n4cnc5c(N)ncnc54)[C@H](O)[C@@H]3O)c2cc1C [FAD],FAD requirement for maximum flavinylation of SdhA,"E. coli apo-SdhA; +SdhE, fumarate 10 mM, apo-SdhA 6 μM, 1 h, 30 °C",stoichiometric ratios of FAD to apo-SdhA
same,EC50,"E. coli apo-SdhA; −SdhE, fumarate 10 mM, apo-SdhA 6 μM, 1 h, 30 °C, read-out: FAD concentration for half-maximal flavinylation of SdhA",~20 µM
same,Increase in FAD concentration required for 50% flavinylation without SDHAF2 versus SDHAF2-dependent reaction,human apo-SDHA [1]; fumarate-only SDHA flavinylation,fivefold
same,Redox potential Em of free FAD,[7],−219 mV
same,Protection of apo-SdhA against thermal inactivation of the flavinylation reaction,apo-SdhA [8],does not afford enhanced stability and protection
same,Kd,"apo-SdhA [9]; read-out: Estimated apparent Kd for FAD, apo-SdhA in the presence of SdhE, +SdhE 12.5 μM",1.3 ± 0.5 µM
same,Kd,"apo-SdhA [9]; without SdhE, read-out: Estimated apparent Kd for FAD, apo-SdhA alone",14.4 ± 1.7 µM
CC(=O)O [acetate],"Covalent FAD attachment to apo-SdhA, SdhE-dependent","E. coli apo-SdhA; FAD 100 μM, 1 h, 30 °C",~30%
same,"Covalent FAD attachment to apo-FrdA, SdhE-dependent",E. coli apo-FrdA,~30%
O=C(O)CC(=O)C(=O)O [oxaloacetate],"Covalent FAD attachment to apo-SdhA, SdhE-dependent","E. coli apo-SdhA; FAD 100 μM, 1 h, 30 °C",high levels
same,"Covalent FAD attachment to apo-FrdA, SdhE-dependent",E. coli apo-FrdA,high levels
same,"Covalent FAD attachment to apo-FrdA, SdhE-independent",E. coli apo-FrdA,partially effective
same,Initiation of flavinylation in Thermus thermophilus,[3],quite proficient
"O=C(O)CC(O)C(=O)O (centres unmarked) [Malate, malate]",EC50,E. coli apo-SdhA,10 µM
same,"Covalent FAD attachment to apo-SdhA, SdhE-dependent","E. coli apo-SdhA; FAD 100 μM, 1 h, 30 °C",high levels
same,"K, apparent first-order rate constant of covalent flavinylation, +SdhE",E. coli apo-SdhA; [10],0.3 min⁻¹
same,"Covalent FAD attachment to apo-SdhA, SdhE-independent","E. coli apo-SdhA; −SdhE, FAD 100 μM, 1 h, 30 °C",partially effective
same,"Covalent FAD attachment to apo-FrdA, SdhE-dependent",E. coli apo-FrdA,high levels
same,Initiation of flavinylation in Thermus thermophilus,[3],quite proficient
"N[C@@H](CC(=O)O)C(=O)O [Aspartate, L-aspartate]",EC50,E. coli apo-SdhA,26 µM
same,"Covalent FAD attachment to apo-SdhA, SdhE-dependent","E. coli apo-SdhA; FAD 100 μM, 1 h, 30 °C",high levels
same,"K, apparent first-order rate constant of covalent flavinylation, +SdhE",E. coli apo-SdhA; [10],0.1 min⁻¹
same,"Covalent FAD attachment to apo-FrdA, SdhE-dependent",E. coli apo-FrdA,high levels
same,"Covalent FAD attachment to apo-FrdA, SdhE-independent",E. coli apo-FrdA,partially effective
